Test results taken from patent US6225322A, “Compounds useful for inhibition of farnesyl protein transferase” (Schering Corporation, priority 1998, dated 2001).

Experiments:
[1] = molecular target: farnesyl protein transferase (Homo sapiens, UniProt P49354+P49356); assay: FPT IC50 (inhibition of farnesyl protein transferase, in vitro enzyme assay); format: biochemical
Method: (§1) FPT IC50 (inhibition of farnesyl protein transferase, in vitro enzyme assay) and COS Cell IC50 (Cell-Based Assay) were determined following the assay procedures described in WO 95/10516, published Apr. 20, 1995. GGPT IC50 (inhibition of geranylgeranyl protein transferase, in vitro enzyme assay), Cell Mat Assay, and anti-tumor activity (in vivo anti-tumor studies) could be determined by the assay procedures described in WO 95/10516. The disclosure of WO 95/10516 is incorporated herein by reference thereto.

COS Cell = COS Cell IC50 (Cell-Based Assay)
Method: as §1

| SMILES | IC50 [1] | IC50 (COS Cell) |
| --- | --- | --- |
| O=C(Cc1cc[n+]([O-])cc1)N1CCC(C2c3ncc(Br)cc3CCc3cc(Br)cnc32)CC1 [Example 13, 4-(3,8-dibromo-6,11-dihydro-5H-cyclohepta [2,1-b:4,5-b']dipyridin-11-yl)-1-(4-pyridinylacetyl) n1-oxide piperidine] | 0.028 µM | 0.125 µM |
| Cc1cnc2c(c1)CCc1cccnc1C2C1CCN(C(=O)Cc2cc[n+]([O-])cc2)CC1 (stereo not drawn) [Example 18, 4-(3-methyl-6,11-dihydro-5H-cyclohepta [2,1-b:4,5-b']dipyridin-11-yl)-1-(4-pyridinylacetyl) n1-oxide piperidine] | 0.16 µM | – |
| CCOC(=O)N1CCC(C2c3ncccc3CCc3cccnc32)CC1 [Example 6, ethyl 4-(6,11-dihydro-5H-cyclohepta[2,1-b:4,5-b']dipyridin-11-yl)-1-piperidinecarboxylate] | > 17 µM | – |
| O=C(Cc1cc[n+]([O-])cc1)N1CCC(C2c3ncccc3CCc3cc(Br)cnc32)CC1 (stereo not drawn) [Example 17, 4-(3-bromo-6,11-dihydro-5H-cyclohepta [2,1-b:4,5-b']dipyridin-11-yl)-1-(4-pyridinylacetyl) n1-oxide piperidine] | 0.29 µM | – |
| O=C(Cc1cc[n+]([O-])cc1)N1CCC(C2c3ncccc3CCc3cccnc32)CC1 [Example 8, 4-(6,11-dihydro-5H-cyclohepta[2,1-b: 4,5-b']dipyridin-11-yl)-1-(4-pyridinylacetyl) n1-oxide piperidine] | > 1.4 µM | – |
